Laboratory results taken from ChEMBL document CHEMBL4616616, “Identification of a C3'-nitrile nucleoside analogue inhibitor of pancreatic cancer cell line growth” (Bioorg Med Chem Lett, 2020).
Blank lines part the entries; values can stand above or below the compound they belong to. The source made the active and inactive calls. No cut-off for these calls is given here.

How the values were obtained:
[1] = test system: BXPC-3; assay: Antiproliferative activity against human BxPC3 cells harboring wild type KRAS and TP53 mutation assessed as inhibition of cell growth at 25 uM incubated for 96 hrs by cell-titer-Glo 2.0 assay; assay type: functional, cell-based
[2] = test system: Capan-2; assay: Antiproliferative activity against human Capan2 cells harboring TP53 and G12V KRAS mutations assessed as inhibition of cell growth at 25 uM incubated for 96 hrs by cell-titer-Glo 2.0 assay
[3] = test system: BXPC-3; assay: Antiproliferative activity against human BxPC3 cells harboring wild type KRAS and TP53 mutation assessed as maximal inhibition of cell growth at 2.5 uM incubated for 96 hrs by cell-titer-Glo assay; assay type: functional, cell-based
[4] = test system: Capan-2; assay: Antiproliferative activity against human Capan2 cells harboring TP53 and G12V KRAS mutations assessed as inhibition of cell growth incubated for 96 hrs by cell-titer-Glo 2.0 assay relative to control
[5] = test system: BXPC-3; assay: Antiproliferative activity against human BxPC3 cells harboring wild type KRAS and TP53 mutation assessed as cell killing incubated for 96 hrs by cell-titer-Glo 2.0 assay relative to control; assay type: functional
[6] = test system: Capan-2; assay: Antiproliferative activity against human Capan2 cells harboring TP53 and G12V KRAS mutations assessed as inhibition of cell growth incubated for 96 hrs by cell-titer-Glo assay; conditions: Capan-2, 96 h
[7] = test system: Capan-2; assay: Antiproliferative activity against human Capan2 cells harboring TP53 and G12V KRAS mutations assessed as cell killing incubated for 96 hrs by cell-titer-Glo 2.0 assay relative to control
[8] = test system: BXPC-3; assay: Antiproliferative activity against human BxPC3 cells harboring wild type KRAS and TP53 mutation assessed as inhibition of cell growth incubated for 96 hrs by cell-titer-Glo 2.0 assay; assay type: functional, cell-based; conditions: BXPC-3, 96 h

Compound: C[C@]1(CC#N)[C@H](F)[C@H](n2cnc3c(N)nc(Cl)nc32)O[C@@H]1CO
inhibition [1]: inactive
inhibition [2]: inactive

Compound: Nc1ccn([C@@H]2O[C@H](CO)[C@@H](O)C2(F)F)c(=O)n1 [GEMCITABINE]
inhibition [3]: Active
Imax [4]: 40%

Compound: C[C@]1(CC#N)[C@H](F)[C@H](n2cnc3c(NCc4ccccc4)nc(Cl)nc32)O[C@@H]1CO
Activity [5]: 20%

EC50 [8]: 12 µM
Compound: CC(C)OC(=O)[C@H](C)N[P@](=O)(OC[C@H]1O[C@@H](n2cnc3c(NCc4ccccc4)nc(Cl)nc32)[C@@H](F)[C@]1(C)CC#N)Oc1ccccc1
Activity [5]: 60%
EC50 [6]: 7 µM
Activity [7]: 80%
